Assay results taken from PubChem BioAssay (NCI).
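Briefly, cells in 96-well plates were exposed to five compound concentrations for 48 h, and endpoints were estimated by linear interpolation. At the TGI there is no net growth.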

What was measured:
Experiment in all cases: NCI tumour cell line growth inhibition, 48 h
KM20L2 colon = system: KM20L2 colon
LXFL 529 NSCLC = system: LXFL 529 NSCLC
DLD-1 colon = system: DLD-1 colon
RXF-631 renal = system: RXF-631 renal
HOP-18 NSCLC = system: HOP-18 NSCLC
DMS 114 small cell lung = system: DMS 114 small cell lung
XF 498 CNS = system: XF 498 CNS
M19-MEL melanoma = system: M19-MEL melanoma
P388/ADR leukemia = system: P388/ADR leukemia
SN12K1 renal = system: SN12K1 renal
P388 leukemia = system: P388 leukemia

| SMILES | TGI (KM20L2 colon) | TGI (LXFL 529 NSCLC) | TGI (DLD-1 colon) | TGI (RXF-631 renal) | TGI (HOP-18 NSCLC) | TGI (DMS 114 small cell lung) | TGI (XF 498 CNS) | TGI (M19-MEL melanoma) | TGI (P388/ADR leukemia) | TGI (SN12K1 renal) | TGI (P388 leukemia) |
| --- | --- | --- | --- | --- | --- | --- | --- | --- | --- | --- | --- |
| O=C1c2cccc(NCCNCCO)c2C(=O)c2cccc(NCCNCCO)c21 | 5.3 µM | 2.95 µM | 12.6 µM | 16.4 µM | 7.79 µM | 1.41 µM | 1.88 µM | – | – | – | – |
| O=[N+]([O-])c1ccc(C2=Nc3ccccc3SC(c3ccccc3)C2)cc1 (stereo not given) | 32.8 µM | 34.8 µM | 48.3 µM | – | – | 32.8 µM | 31.6 µM | 31 µM | – | – | – |
| COc1cc(CC(C)N)ccc1O (stereo not given) | > 100 µM | > 100 µM | > 100 µM | > 100 µM | > 100 µM | > 100 µM | > 100 µM | – | – | – | – |
| COc1cc2c(c(O)c1O)-c1ccc(OC)c(=O)cc1C(NC(C)=O)CC2 (stereo not given) | 11 µM | 44.3 µM | > 100 µM | > 92.9 µM | > 100 µM | – | 38.5 µM | 26.1 µM | – | – | – |
| NC(=O)c1ncn2c1NC(=O)CC2 | > 100 µM | – | > 100 µM | – | > 100 µM | > 100 µM | > 100 µM | > 100 µM | > 100 µM | > 100 µM | > 31.6 µM |
| Cc1c2ccncc2c(C)c2c1[nH]c1ccccc12 | 5.89 µM | – | 2.33 µM | – | 6.38 µM | 3.09 µM | 3.29 µM | 2.16 µM | 4.32 µM | 3.37 µM | 2.89 µM |
| C[C@]12CC[C@H](O)C=C1CC[C@@H]1[C@@H]2CC[C@]2(C)C(c3ccc(=O)oc3)CC[C@]12O (stereo not given in full) | 0.148 µM | – | 0.0392 µM | – | 0.0151 µM | < 0.0125 µM | 0.0505 µM | 0.071 µM | 125 µM | 0.0201 µM | 125 µM |
| CCCCC#CS(=O)(=O)C(F)(F)F | > 100 µM | – | > 100 µM | – | > 100 µM | > 100 µM | > 94.7 µM | – | > 100 µM | > 100 µM | 63.2 µM |
| COc1c(O)c(O)cc2c1-c1ccc(OC)c(=O)cc1C(NC(C)=O)CC2 (stereo not given) | 17.5 µM | 25.2 µM | > 100 µM | 68.4 µM | > 100 µM | 6.43 µM | 54.2 µM | 23.7 µM | – | – | – |
